# Laboratory results: PubChem BioAssay (NCI)
#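 Tested at 5 concentrations; 48 h exposure; 96-well plates; endpoints linearly interpolated, else capped at highest concentration. Abbreviation: GI50, concentration required for 50% inhibition of growth. The concentration for full growth arrest is given as TGI.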
# Assays:
# Assay in all cases: NCI tumour cell line growth inhibition, 48 h
# ACHN renal = system: ACHN renal
# SF-295 CNS = system: SF-295 CNS
# CCRF-CEM leukemia = system: CCRF-CEM leukemia
# IGROV1 ovarian = system: IGROV1 ovarian
# UO-31 renal = system: UO-31 renal
# A549 NSCLC = system: A549 NSCLC
# TK-10 renal = system: TK-10 renal
# RPMI-8226 leukemia = system: RPMI-8226 leukemia
# MALME-3M melanoma = system: MALME-3M melanoma
# NCI-H23 lung = system: NCI-H23 lung
# K-562 leukemia = system: K-562 leukemia
# HT29 colon = system: HT29 colon
# OVCAR-4 ovarian = system: OVCAR-4 ovarian
# COLO 205 colon = system: COLO 205 colon
# HCT-116 colon = system: HCT-116 colon
# RXF 393 renal = system: RXF 393 renal
# HS 578T breast = system: HS 578T breast
# PC-3 prostate = system: PC-3 prostate
Structure (SMILES),TGI (ACHN renal),TGI (SF-295 CNS),TGI (CCRF-CEM leukemia),TGI (IGROV1 ovarian),TGI (UO-31 renal),TGI (A549 NSCLC),TGI (TK-10 renal),TGI (RPMI-8226 leukemia),TGI (MALME-3M melanoma),TGI (NCI-H23 lung),TGI (K-562 leukemia),TGI (HT29 colon),TGI (OVCAR-4 ovarian),TGI (COLO 205 colon),TGI (HCT-116 colon),TGI (RXF 393 renal),TGI (HS 578T breast),TGI (PC-3 prostate),GI50 (SF-295 CNS),GI50 (RXF 393 renal)
COc1ccc(/C(Cl)=C(\C=N/O)c2ccc(OC)c(OC)c2)cc1OC,> 100 µM,> 100 µM,> 100 µM,> 100 µM,> 100 µM,> 100 µM,> 100 µM,> 100 µM,> 100 µM,> 100 µM,> 100 µM,> 100 µM,> 100 µM,> 100 µM,> 100 µM,> 100 µM,,,,
NC(=O)Cc1nc2c(N)ncnc2n1C1OC(CO)C(O)C1O (stereo not drawn),> 100 µM,> 100 µM,> 100 µM,> 100 µM,> 100 µM,> 100 µM,> 100 µM,> 100 µM,> 100 µM,> 100 µM,> 100 µM,> 100 µM,> 100 µM,> 100 µM,> 100 µM,,> 100 µM,> 100 µM,,
CC(=O)OCC1OC(n2c(-c3ccccc3)c(C(C)=O)c(-c3cccc4ccccc34)c(C#N)c2=S)C(OC(C)=O)C(OC(C)=O)C1OC(C)=O (stereo not drawn),> 100 µM,> 100 µM,> 100 µM,> 100 µM,0.0252 µM,> 100 µM,> 100 µM,,> 100 µM,> 100 µM,> 100 µM,> 100 µM,> 100 µM,> 100 µM,> 100 µM,> 100 µM,,> 100 µM,,
Cc1cc(/C=C/c2cc[n+](C)c3ccccc23)c(O)c2ncccc12,16.4 µM,15.5 µM,> 37.7 µM,8.39 µM,21.3 µM,19.1 µM,17.5 µM,6.41 µM,12.4 µM,4.86 µM,13.7 µM,14.6 µM,32.4 µM,23.3 µM,7.34 µM,9.83 µM,,,,
Cc1ccc(/C(O)=C/C(=O)C(=O)NC23CC4CC(CC(C4)C2)C3)cc1,,> 10 µM,> 10 µM,,,> 10 µM,> 10 µM,> 10 µM,> 10 µM,> 10 µM,> 10 µM,> 10 µM,> 10 µM,> 10 µM,,> 10 µM,,> 10 µM,,
COC1CC(COCc2ccccc2)CC(OC)O1 (stereo not drawn),> 100 µM,> 100 µM,0.44 µM,,> 100 µM,> 100 µM,> 100 µM,> 100 µM,,> 100 µM,> 100 µM,> 100 µM,,> 100 µM,> 100 µM,> 100 µM,> 100 µM,,,
CCOC(=O)c1cc2/c(=C\c3ccc(N(C)C)cc3)c3ccccc3n2[n+]1C,20.4 µM,16.1 µM,> 24.6 µM,,19.3 µM,> 40 µM,21.9 µM,,,12.3 µM,> 58 µM,12.7 µM,13.7 µM,1.42 µM,11.1 µM,4.78 µM,,12.7 µM,,
CCCCCCCCCCCCCCCCCCNC(=S)/N=C\C1=C(O)c2ccccc2C1=O,26.2 µM,31.2 µM,21.5 µM,5.62 µM,23.3 µM,28 µM,30.6 µM,33.1 µM,28.1 µM,31.9 µM,,25 µM,,29.1 µM,15.3 µM,,35 µM,15.9 µM,,
COc1ccccc1-c1cc(=O)c2cc3c(cc2[nH]1)OCO3,> 100 µM,62.6 µM,> 100 µM,> 100 µM,> 100 µM,> 100 µM,> 100 µM,> 100 µM,> 100 µM,> 100 µM,> 100 µM,> 100 µM,92 µM,51.5 µM,> 100 µM,56.2 µM,,,21.1 µM,15.1 µM
COc1ccc(C2SCC(=O)N2NC(=O)c2ccc(NC(C)=O)cc2)c(OC)c1 (stereo not drawn),> 100 µM,> 100 µM,,> 100 µM,> 100 µM,> 100 µM,> 100 µM,> 100 µM,,> 100 µM,> 100 µM,> 100 µM,> 100 µM,> 100 µM,> 100 µM,> 100 µM,> 100 µM,,,
C/C(CC(O)(/C=N/O)c1ccccc1)=N/O (stereo not drawn),> 100 µM,> 100 µM,> 100 µM,> 100 µM,> 100 µM,> 100 µM,> 100 µM,> 100 µM,> 100 µM,> 100 µM,> 100 µM,> 100 µM,> 100 µM,,> 100 µM,,> 100 µM,> 100 µM,,
CC(C)N=C(N)NC#N,> 100 µM,> 100 µM,> 100 µM,> 100 µM,> 100 µM,> 100 µM,,> 100 µM,> 100 µM,,> 100 µM,> 100 µM,> 100 µM,> 100 µM,> 100 µM,,,,,
COC(O)C(=O)c1ccc2c(c1)CC1(C2)Cc2cc3c(cc2C1=O)CCC3 (stereo not drawn),30.6 µM,44.1 µM,48 µM,32.8 µM,30.5 µM,47.4 µM,36.2 µM,32.7 µM,36.1 µM,56.2 µM,21.8 µM,42.3 µM,30.4 µM,47.2 µM,34.8 µM,,60.7 µM,30.8 µM,,
O=C(Nc1ccc2[nH]c(C(=O)N3CC(CCl)c4c3cc([N+](=O)[O-])c3ccccc43)cc2c1)Nc1ccc2[nH]c(C(=O)N3CC(CCl)c4c3cc([N+](=O)[O-])c3ccccc43)cc2c1 (stereo not drawn),> 100 µM,> 100 µM,36.9 µM,,41.1 µM,> 100 µM,> 100 µM,> 100 µM,> 100 µM,> 100 µM,,,> 100 µM,> 100 µM,> 100 µM,,,> 100 µM,,
